Structures are written as SMILES. pIC50: −log10 of the molar value.

Results on two molecules are retold here after BindingDB's records for doi:10.1016/j.ejmech.2016.02.023 (Rhône-Poulenc Rorer, 2016).

The assay can be described thus: Antagonist activity at CRTH2 receptor in human eosinophils by ESC assay.

Regarding `Cc1c(CC(=O)O)c2ccncn2c1Cc1ccccc1S(=O)(=O)c1ccccc1`, the negative logarithm of the IC50 (pIC50) (in general, the IC50 on a negative log10 scale, so that one unit is a factor of ten) is 7.92.
`COc1ccc(S(=O)(=O)c2ccc(F)cc2)c(Cc2c(C)c(CC(=O)O)c3ccncn23)c1`: the pIC50 is 8.22.
